From ChEMBL document CHEMBL3997840, “Kinase-independent phosphoramidate S1P1 receptor agonist benzyl ether derivatives” (Bioorg Med Chem Lett, 2017)

What was measured:
[1] = system: Serum; experiment: Drug metabolism in human serum assessed as monophosphate formation by measuring parent compound half life at 3 mg by 31P NMR method; assay type: ADME, cell-free
[2] = species: Homo sapiens; experiment: Selectivity ratio of EC50 for human S1P3 receptor to EC50 for human S1P1 receptor
[3] = biological target: Sphingosine 1-phosphate receptor 3 (Homo sapiens, UniProt Q99500); experiment: Agonist activity at human S1P3 receptor expressed in CHOK1 cell membranes by [35S]-GTPgammaS binding assay
Chain of Sphingosine 1-phosphate receptor 3 (Q99500 whole entry): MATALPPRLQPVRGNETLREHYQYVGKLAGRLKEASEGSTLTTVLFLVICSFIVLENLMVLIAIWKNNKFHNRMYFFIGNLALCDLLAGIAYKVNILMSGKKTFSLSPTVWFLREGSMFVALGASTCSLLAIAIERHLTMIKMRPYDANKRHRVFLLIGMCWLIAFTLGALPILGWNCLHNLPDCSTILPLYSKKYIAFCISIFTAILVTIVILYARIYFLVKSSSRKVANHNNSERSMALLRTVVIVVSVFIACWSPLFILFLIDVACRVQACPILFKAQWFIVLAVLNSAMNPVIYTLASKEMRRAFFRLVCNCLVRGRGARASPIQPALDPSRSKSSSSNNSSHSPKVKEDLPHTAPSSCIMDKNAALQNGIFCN

[4] = Chemical stability in aqueous buffer at pH 8 at 3 mg measured every 12 mins over 13 hrs by 31P NMR method; assay type: physicochemical; settings: pH 8, 13 h
[5] = Drug metabolism assessed as carboxypeptidase Y (unknown origin)-mediated monophosphate formation at 3 mg measured every day over 2 weeks by mass spectroscopic method; assay type: ADME; settings: human, 336 h
[6] = Drug metabolism in mouse J1 cell derived neurons assessed as monophosphate formation at 3 mg after 4 days by mass spectroscopic method; assay type: ADME, cell-based; settings: j1 cell-derived neuron, 96 h
[7] = system: Serum; experiment: Drug metabolism in human serum assessed as monophosphate formation at 3 mg after 12 hrs by mass spectroscopic method; assay type: ADME, cell-free
[8] = Chemical stability in aqueous buffer at pH 1.5 at 3 mg measured every 12 mins over 13 hrs by 31P NMR method; assay type: physicochemical; settings: pH 1.5, 13 h

## Cc1ccc(CCCC(=O)c2cc(C)c(COC[C@@](C)(N)COP(=O)(N[C@@H](C)C(=O)OCc3ccccc3)Oc3ccccc3)cc2C)cc1 (some centres undefined)
[1]
  t1/2: 14 h

## Cc1ccc(CCCC(=O)c2ccc(COC[C@@](C)(N)COP(=O)(N[C@@H](C)C(=O)OC(C)C)Oc3ccccc3)cc2)cc1 (some centres undefined)
[1]
  t1/2: 14 h

## Cc1ccc(CCCC(=O)c2cc(C)c(COC[C@@](C)(N)COP(=O)(O)O)cc2C)cc1
[2]
  Ratio EC50: > 3080
[3]
  EC50: > 20 µM

## Cc1ccc(CCCC(=O)c2ccc(COC[C@@](C)(N)COP(=O)(O)O)cc2)cc1
[2]
  Ratio EC50: 29

## Cc1ccc(CCCC(=O)c2ccc(COC[C@@](C)(N)COP(=O)(N[C@@H](C)C(=O)OCc3ccccc3)Oc3ccccc3)cc2)cc1 (some centres undefined)
[1]
  t1/2: 14 h

## COC(=O)[C@H](C)NP(=O)(OC[C@](C)(N)COCc1ccc(C(=O)CCCc2ccc(C)cc2)cc1)Oc1ccccc1 (some centres undefined)
[4]
  Stability: Stable
[5]
  Drug metabolism: Metabolite_Detected
[1]
  t1/2: 14 h
[6]
  Drug metabolism: Metabolite_Detected
[7]
  Drug metabolism: Metabolite_Detected
[8]
  Stability: Stable

## COC(=O)[C@H](C)NP(=O)(OC[C@](C)(N)COCc1cc(C)c(C(=O)CCCc2ccc(C)cc2)cc1C)Oc1ccccc1 (some centres undefined)
[1]
  t1/2: 14 h

## Cc1ccc(CCCC(=O)c2cc(C)c(COC[C@@](C)(N)COP(=O)(N[C@@H](C)C(=O)OC(C)C)Oc3ccccc3)cc2C)cc1 (some centres undefined)
[1]
  t1/2: 14 h
